Test results published in paper PMC4548482 (Neuropharmacology, 2015).

Assays:
human α7 nAChRs [1] = molecular target: T1, human α7 nAChRs (Homo sapiens, UniProt P36544); assay: Two-electrode voltage-clamp recording, wild-type human α7 nAChRs expressed in Xenopus oocytes; type: cell-based; conditions: for Fold potentiation: Human α7, maximum fold potentiation of responses to an EC50 of acetylcholine (100 μM), mean ± SEM; for Imax: Wild-type α7, normalised to the maximum response to acetylcholine; for Effect on rate of desensitisation of acetylcholine-evoked responses: wild-type α7, acetylcholine 100 μM, pre- and co-application of PAM; for Desensitisation after receptor reactivation: acetylcholine co-applied with compound, period of 30 s; for Total net charge transfer relative to initial application of acetylcholine alone: measured during a 30 s application of compound in continued presence of acetylcholine (100 μM)
T1 construct: expressed in transfected cells; host or cells: Xenopus laevis oocytes (cRNA injection)
T1 sequence (P36544 23-502): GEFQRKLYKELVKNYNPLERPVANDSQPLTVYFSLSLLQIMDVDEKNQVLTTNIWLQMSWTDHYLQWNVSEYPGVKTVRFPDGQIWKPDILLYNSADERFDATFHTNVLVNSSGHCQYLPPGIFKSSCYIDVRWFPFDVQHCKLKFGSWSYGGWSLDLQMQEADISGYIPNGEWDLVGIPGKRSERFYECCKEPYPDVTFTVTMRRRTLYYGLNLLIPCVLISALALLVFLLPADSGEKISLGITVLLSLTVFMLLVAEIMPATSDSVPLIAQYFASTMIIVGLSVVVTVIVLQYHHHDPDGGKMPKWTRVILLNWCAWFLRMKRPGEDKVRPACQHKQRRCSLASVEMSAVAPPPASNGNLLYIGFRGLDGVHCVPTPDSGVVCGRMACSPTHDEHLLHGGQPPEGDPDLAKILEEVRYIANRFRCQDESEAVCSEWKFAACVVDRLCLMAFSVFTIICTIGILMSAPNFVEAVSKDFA
Method: All plasmid constructs used in this study have been described previously.
(§1) Oocytes were isolated from adult female Xenopus laevis following procedures that have been approved by UCL's Biological Services Management Group and the UK Home Office. […] Heterologous expression was achieved by injection of wild-type or mutated α7 cRNA (6–12 ng) into oocyte cytoplasm. Oocytes were injected in a volume of 20–30 nl using a Drummond variable volume microinjector. […] Experiments were performed on oocytes after 3–5 days of incubation.

human α4β2 nAChRs = molecular target: T2, human α4β2 nAChRs (Homo sapiens, UniProt P17787+P43681); assay: Two-electrode voltage-clamp recording, human α4β2 nAChRs in Xenopus oocytes; type: cell-based; set-up: concentration or dose not given beside the values; conditions: inhibition of agonist-evoked responses, mean ± SEM
T2 construct: expressed in transfected cells; host or cells: Xenopus laevis oocytes
T2 sequence (P43681 29-627 limits assumed): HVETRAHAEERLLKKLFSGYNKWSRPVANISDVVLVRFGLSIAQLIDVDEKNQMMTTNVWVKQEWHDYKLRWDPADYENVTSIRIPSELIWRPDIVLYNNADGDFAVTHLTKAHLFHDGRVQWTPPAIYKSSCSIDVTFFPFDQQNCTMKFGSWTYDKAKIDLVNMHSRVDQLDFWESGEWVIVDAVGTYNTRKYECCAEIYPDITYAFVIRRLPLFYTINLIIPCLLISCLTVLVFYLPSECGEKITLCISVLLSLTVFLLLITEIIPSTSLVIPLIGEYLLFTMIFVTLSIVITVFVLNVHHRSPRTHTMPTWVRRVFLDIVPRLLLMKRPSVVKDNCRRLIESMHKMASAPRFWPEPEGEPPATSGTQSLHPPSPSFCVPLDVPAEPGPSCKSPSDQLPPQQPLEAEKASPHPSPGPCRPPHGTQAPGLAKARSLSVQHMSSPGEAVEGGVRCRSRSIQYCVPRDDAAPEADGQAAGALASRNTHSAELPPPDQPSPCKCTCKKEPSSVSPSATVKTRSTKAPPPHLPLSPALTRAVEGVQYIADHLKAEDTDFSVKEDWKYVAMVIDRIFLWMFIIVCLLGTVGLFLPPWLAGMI
T2 sequence (P17787 26-502): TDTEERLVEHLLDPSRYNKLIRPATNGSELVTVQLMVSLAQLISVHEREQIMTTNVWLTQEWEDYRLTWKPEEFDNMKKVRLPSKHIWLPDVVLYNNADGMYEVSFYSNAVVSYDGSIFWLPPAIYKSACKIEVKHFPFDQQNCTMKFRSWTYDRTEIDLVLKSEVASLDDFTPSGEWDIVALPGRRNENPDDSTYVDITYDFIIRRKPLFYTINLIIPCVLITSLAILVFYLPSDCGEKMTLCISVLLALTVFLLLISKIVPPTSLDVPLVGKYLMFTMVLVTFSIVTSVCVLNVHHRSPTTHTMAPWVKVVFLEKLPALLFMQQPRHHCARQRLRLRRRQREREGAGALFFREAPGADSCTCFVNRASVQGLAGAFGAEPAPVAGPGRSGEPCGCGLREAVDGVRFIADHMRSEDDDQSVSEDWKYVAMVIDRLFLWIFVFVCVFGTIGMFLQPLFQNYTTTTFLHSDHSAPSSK
Text: (§2) All plasmid constructs used in this study have been described previously. These include plasmids containing cDNAs encoding human α3, α4, α7, β2 and β4 nAChR subunits in pSP64GL ([Broadbent et al., 2006]); rat α7 nAChR subunit in pcDNA3 ([Cooper and Millar, 1997]); α7/5-HT3A subunit chimera (containing the rat α7 N-terminal domain and mouse 5-HT3A transmembrane and C-terminal domain) in pcDNA3 ([Cooper and Millar, 1998]); human RIC-3 in pRK5 ([Lansdell et al., 2005]) and mouse 5-HT3A ([Maricq et al., 1991]) in pRK5.
(§3) Oocytes were isolated from adult female Xenopus laevis following procedures that have been approved by UCL's Biological Services Management Group and the UK Home Office. Oocytes were defolliculated as described previously ([Young et al., 2007]) by treatment with collagenase (2 mg/ml; Worthington Biochemicals, Freehold, NJ) in calcium-free Barth's solution containing 88 mM NaCl, 2.4 mM NaHCO3, 1 mM KCl, 0.82 mM MgSO4, and 15 mM Tris, pH 7.5. Heterologous expression was achieved by injection of wild-type or mutated α7 cRNA (6–12 ng) into oocyte cytoplasm. Oocytes were injected in a volume of 20–30 nl using a Drummond variable volume microinjector. After injection, oocytes were incubated at 18 °C in a calcium-containing Barth's solution (composition, as above, but with 0.77 mM CaCl2) supplemented with antibiotics (100 units/ml penicillin, 100 μg/ml streptomycin, 4 μg/ml kanamycin, and 50 μg/ml tetracycline). Experiments were performed on oocytes after 3–5 days of incubation. […] Two-electrode voltage-clamp recordings were performed (with the oocyte membrane potential held at −60 mV), as described previously ([Gill et al., 2012; Young et al., 2007]).

human α3β4 nAChRs = molecular target: T3, human α3β4 nAChRs (Homo sapiens, UniProt P30926+P32297); assay: Two-electrode voltage-clamp recording, human α3β4 nAChRs in Xenopus oocytes; type: cell-based; set-up: concentration or dose not given beside the values; conditions: inhibition of agonist-evoked responses, mean ± SEM
T3 construct: expressed in transfected cells; host or cells: Xenopus laevis oocytes
T3 sequence (P32297 32-505): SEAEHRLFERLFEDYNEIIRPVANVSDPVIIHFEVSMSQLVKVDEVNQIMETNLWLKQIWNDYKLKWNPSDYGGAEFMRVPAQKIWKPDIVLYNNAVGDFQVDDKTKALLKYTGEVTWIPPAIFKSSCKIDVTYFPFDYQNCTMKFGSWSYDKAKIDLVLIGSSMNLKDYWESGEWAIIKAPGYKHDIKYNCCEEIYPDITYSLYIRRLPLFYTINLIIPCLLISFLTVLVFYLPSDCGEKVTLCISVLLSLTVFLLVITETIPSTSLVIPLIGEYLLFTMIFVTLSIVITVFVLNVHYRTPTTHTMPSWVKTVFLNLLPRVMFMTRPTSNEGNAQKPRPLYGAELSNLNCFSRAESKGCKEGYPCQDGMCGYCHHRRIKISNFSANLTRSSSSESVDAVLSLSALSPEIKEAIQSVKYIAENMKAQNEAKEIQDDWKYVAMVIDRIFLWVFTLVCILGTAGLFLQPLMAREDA
T3 sequence (P30926 22-498): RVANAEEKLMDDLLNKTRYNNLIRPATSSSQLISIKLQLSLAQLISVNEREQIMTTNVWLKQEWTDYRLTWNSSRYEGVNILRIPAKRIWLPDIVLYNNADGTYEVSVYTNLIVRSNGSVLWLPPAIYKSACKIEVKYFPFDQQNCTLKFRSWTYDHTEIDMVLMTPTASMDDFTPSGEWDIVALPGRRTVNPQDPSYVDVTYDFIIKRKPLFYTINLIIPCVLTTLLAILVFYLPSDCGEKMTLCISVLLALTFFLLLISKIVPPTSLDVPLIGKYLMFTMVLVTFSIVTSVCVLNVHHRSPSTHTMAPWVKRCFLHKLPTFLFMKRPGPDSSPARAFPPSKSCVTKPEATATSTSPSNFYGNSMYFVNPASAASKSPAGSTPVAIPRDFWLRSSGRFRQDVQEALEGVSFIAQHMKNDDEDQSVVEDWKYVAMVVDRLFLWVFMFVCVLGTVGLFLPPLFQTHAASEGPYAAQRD
Text: as §2, §3

rat α7 nAChRs = molecular target: T4, rat α7 nAChRs (Rattus norvegicus, UniProt Q05941); assay: Two-electrode voltage-clamp recording, rat α7 nAChRs in Xenopus oocytes; type: cell-based; conditions: mean ± SEM
T4 construct: expressed in transfected cells; host or cells: Xenopus laevis oocytes
T4 sequence (Q05941 23-502): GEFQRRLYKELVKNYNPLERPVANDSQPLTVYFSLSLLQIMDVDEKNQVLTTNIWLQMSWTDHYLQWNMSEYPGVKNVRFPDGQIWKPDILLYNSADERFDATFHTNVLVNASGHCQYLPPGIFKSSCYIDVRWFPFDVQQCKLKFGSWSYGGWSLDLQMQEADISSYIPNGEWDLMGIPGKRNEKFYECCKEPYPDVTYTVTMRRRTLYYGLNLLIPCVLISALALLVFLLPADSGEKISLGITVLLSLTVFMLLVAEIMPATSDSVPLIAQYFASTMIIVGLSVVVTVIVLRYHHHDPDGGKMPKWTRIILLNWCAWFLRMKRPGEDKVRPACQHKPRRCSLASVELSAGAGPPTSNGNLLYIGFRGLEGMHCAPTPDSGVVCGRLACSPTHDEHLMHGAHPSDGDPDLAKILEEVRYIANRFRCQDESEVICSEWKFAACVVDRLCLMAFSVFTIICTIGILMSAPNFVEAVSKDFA
Text: as §2, §3

mouse 5-HT3A = molecular target: T5, mouse 5-HT3A (Mus musculus, UniProt P23979); assay: Two-electrode voltage-clamp recording, mouse 5-HT3ARs in Xenopus oocytes; type: cell-based; set-up: concentration or dose not given beside the values; conditions: inhibition of agonist-evoked responses, mean ± SEM
T5 construct: expressed in transfected cells; host or cells: Xenopus laevis oocytes
T5 sequence (P23979 24-489): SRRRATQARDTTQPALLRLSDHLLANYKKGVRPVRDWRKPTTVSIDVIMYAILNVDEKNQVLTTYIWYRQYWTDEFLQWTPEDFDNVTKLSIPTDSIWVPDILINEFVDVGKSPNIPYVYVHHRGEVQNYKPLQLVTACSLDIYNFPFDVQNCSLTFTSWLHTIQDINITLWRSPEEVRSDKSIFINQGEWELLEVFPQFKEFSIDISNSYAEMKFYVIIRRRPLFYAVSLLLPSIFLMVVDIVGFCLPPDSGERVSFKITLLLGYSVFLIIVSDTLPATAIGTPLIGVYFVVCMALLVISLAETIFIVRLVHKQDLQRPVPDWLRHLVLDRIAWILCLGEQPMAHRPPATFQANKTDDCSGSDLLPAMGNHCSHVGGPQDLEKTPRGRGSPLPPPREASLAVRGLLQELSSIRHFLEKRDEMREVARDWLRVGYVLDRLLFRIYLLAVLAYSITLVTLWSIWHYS
Text: as §2, §3

[2] = molecular target: T6, α7/5-HT3A subunit chimera (rat α7 N-terminal domain, mouse 5-HT3A transmembrane and C-terminal domain) (UniProt P23979+Q05941, M226I/T225I); assay: Two-electrode voltage-clamp recording, α7/5-HT3A subunit chimera in Xenopus oocytes; type: cell-based; set-up: concentration or dose not given beside the values; conditions: α7/5-HT3A chimera; inhibition of agonist-evoked responses; mean ± SEM
T6 construct: containing the extracellular/N-terminal domain of the rat α7 nAChR subunit; the transmembrane/C-terminal domain of the mouse 5-HT3A subunit; expressed in transfected cells; host or cells: Xenopus laevis oocytes
T6 sequence (Q05941+P23979 fused Q05941:T225I/Q05941:M226I): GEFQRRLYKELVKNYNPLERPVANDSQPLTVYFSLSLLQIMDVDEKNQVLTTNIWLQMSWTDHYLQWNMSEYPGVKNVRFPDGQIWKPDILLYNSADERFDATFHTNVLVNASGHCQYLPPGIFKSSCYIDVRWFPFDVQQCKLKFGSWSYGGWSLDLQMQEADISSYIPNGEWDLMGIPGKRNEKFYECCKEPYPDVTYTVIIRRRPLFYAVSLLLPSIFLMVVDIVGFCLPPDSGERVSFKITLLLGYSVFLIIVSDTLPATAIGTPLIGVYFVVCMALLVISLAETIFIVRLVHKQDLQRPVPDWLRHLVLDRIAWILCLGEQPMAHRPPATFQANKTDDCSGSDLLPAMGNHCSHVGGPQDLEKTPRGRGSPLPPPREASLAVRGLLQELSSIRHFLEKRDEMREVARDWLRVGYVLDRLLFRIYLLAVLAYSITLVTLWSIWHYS
Text: as §2, §3

α7 L247T nAChRs = molecular target: T7, α7 L247T nAChRs (Homo sapiens, UniProt P36544, L270T); assay: Two-electrode voltage-clamp recording, human α7 nAChRs containing the L247T mutation in Xenopus oocytes; type: cell-based; conditions: α7 L247T; for nH (Hill coefficient) / EC50: mean ± SEM; for EC50: read-out: EC50 (agonist); for Imax: normalised to the maximum response to acetylcholine
T7 construct: expressed in transfected cells; host or cells: Xenopus laevis oocytes (cRNA injection)
T7 sequence (P36544 23-502 L270T): as the sequence (P36544 23-502) above, with L248T counted along it
Method: (§4) Site-directed mutagenesis was performed on human nAChR α7 subunit cDNA in plasmid pSP64GL using the QuikChange mutagenesis kit (Stratagene) and verified by nucleotide sequencing. Plasmid pSP64GL containing wild-type or mutated human α7 cDNA was linearized with BamHI and purified with QIAQuik PCR purification kit (Qiagen). In vitro synthesis of cRNA was performed using mMessage mMachine SP6 transcription kit (Life Technologies).
as §1

α7 M260L nAChRs = molecular target: T8, α7 M260L nAChRs (Homo sapiens, UniProt P36544, M283L); assay: Two-electrode voltage-clamp recording, human α7 nAChRs containing the M260L mutation in Xenopus oocytes; type: cell-based; conditions: for Fold potentiation (maximum peak response compared to acetylcholine alone): acetylcholine 100 μM, pre- and co-application of modulator (10 μM); for Agonist effect on M260L receptors: compound applied alone; for Imax: normalised to the maximum response to acetylcholine
T8 construct: expressed in transfected cells; host or cells: Xenopus laevis oocytes (cRNA injection)
T8 sequence (P36544 23-502 M283L): as the sequence (P36544 23-502) above, with M261L counted along it
Method: as §4, §1

human α7 nAChRs [3] = molecular target: T1, human α7 nAChRs; type: binding; conditions: [3H]-α-bungarotoxin 1 nM; tsA201 cells
[4] = wild-type α7 desensitised by continued acetylcholine (100 μM), compound 10 μM
[5] = M260L α7, type I PAM 10 μM pre-applied for 10 s then co-applied, n = 3

| SMILES | Fold potentiation (human α7 nAChRs [1]) [fold] | Imax (human α7 nAChRs [1]) | Effect on rate of desensitisation of acetylcholine-evoked responses (human α7 nAChRs [1]) | Recovery from desensitisation (reactivation of desensitised receptors) (human α7 nAChRs [1]; [4]) | % Inhibition (human α4β2 nAChRs) [%] | % Inhibition (human α3β4 nAChRs) [%] | Fold potentiation (rat α7 nAChRs) [fold] | % Inhibition (mouse 5-HT3A) [%] | % Inhibition [2] [%] | nH (Hill coefficient) (α7 L247T nAChRs) | EC50 (α7 L247T nAChRs) [µM] | Imax (α7 L247T nAChRs) | Fold potentiation (maximum peak response compared to acetylcholine alone) (α7 M260L nAChRs; M260L α7) [fold] | Agonist effect on M260L receptors (α7 M260L nAChRs) | Imax (α7 M260L nAChRs; α7 M260L) | Displacement of [3H]-α-bungarotoxin binding (human α7 nAChRs [3]) | melting point [°C] | Desensitisation after receptor reactivation (human α7 nAChRs [1]) | Total net charge transfer relative to initial application of acetylcholine alone (human α7 nAChRs [1]) [fold] | other results |
| --- | --- | --- | --- | --- | --- | --- | --- | --- | --- | --- | --- | --- | --- | --- | --- | --- | --- | --- | --- | --- |
| COc1ccc(-c2nc(-c3ccc(Br)cc3)nn2-c2ccc(S(N)(=O)=O)cc2)cc1 [TBS-346, 4-(3-(4-bromophenyl)-5-(4-methoxyphenyl)-1H-1,2,4-triazol-1-yl)benzenesulfonamide] | 10.5 ± 2.5 | 0.0 ± 0.0 | minimal changes to desensitisation | no detectable responses | 23.1 ± 5.7 | 68.4 ± 3.0 | 8.7 ± 5.3 | 30.8 ± 15.5 | 13.4 ± 7.7 | 1.7 ± 0.3 | 0.1 ± 0.04 | 0.9 ± 0.1 | 2.8 ± 0.6 | no agonist effect | 0.0 ± 0.0 | no significant displacement | 290 to 294 | – | – | Block of agonist responses to TBS-516 (10 μM) (α7 M260L nAChRs; [5]): 83.4 ± 4.1%; Block of agonist responses to TQS (10 μM) (α7 M260L nAChRs; [5]): 95.7 ± 1.1% |
| NS(=O)(=O)c1ccc(-n2nc(-c3ccc(Br)cc3)nc2Cc2ccccc2)cc1 [TBS-516, 4-(5-benzyl-3-(4-bromophenyl)-1H-1,2,4-triazol-1-yl)benzenesulfonamide] | 11.3 ± 3.1 | 0.0 ± 0.0 | dramatic slowing of desensitisation | caused recovery from desensitisation | 1.7 ± 0.4 | 31.1 ± 0.6 | 3.6 ± 1.0 | 10.4 ± 7.5 | 9.2 ± 12.8 | 2.5 ± 0.3 | 0.2 ± 0.04 | 1.1 ± 0.1 | 8.0 ± 3.1 | converted into agonists | 3.7 ± 0.6 | no significant displacement | 203 to 205 | no desensitisation was observed | 250 ± 71 | Response on reactivation of desensitised receptors relative to response to 100 μM acetylcholine (human α7 nAChRs [1]; [4]): 3.2 ± 0.9 fold; nH (Hill coefficient) (α7 M260L nAChRs; α7 M260L, mean ± SEM): 1.8 ± 0.3; EC50 (α7 M260L nAChRs; α7 M260L, mean ± SEM, read-out: EC50 (agonist)): 8.9 ± 2.5 µM |
| CCCc1nc(-c2ccc(Br)cc2)nn1-c1ccc(S(N)(=O)=O)cc1 [TBS-546, 4-(3-(4-bromophenyl)-5-propyl-1H-1,2,4-triazol-1-yl)benzenesulfonamide] | 4.7 ± 1.0 | – | intermediate between those of classical type I and type II PAMs | no detectable responses | 20.5 ± 5.9 | 9.0 ± 3.5 | 1.9 ± 0.2 | 15.2 ± 4.3 | 26.4 ± 16.0 | – | – | – | 3.6 ± 0.6 | no agonist effect | – | no significant displacement | 204 to 208 | – | – | – |
| NS(=O)(=O)c1ccc(-n2nc(-c3ccc(Br)cc3)nc2CCc2ccccc2)cc1 [TBS-556, 4-(3-(4-bromophenyl)-5-phenethyl-1H-1,2,4-triazol-1-yl)benzenesulfonamide] | 4.7 ± 0.2 | – | intermediate between those of classical type I and type II PAMs | caused recovery from desensitisation | 3.2 ± 0.9 | 16 ± 13 | 4.3 ± 0.6 | 10 ± 1.9 | 1.0 ± 1.0 | – | – | – | 6.6 ± 1.0 | converted into agonists | – | no significant displacement | 184 to 186 | no desensitisation was observed | 27 ± 6 | Response on reactivation of desensitised receptors as % of the response to 100 μM acetylcholine (human α7 nAChRs [1]; [4]): 57.3 ± 10.1% |
